Results: PubChem BioAssay (NCI)
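Protocol summary: plate cells (96-well), add compound at 5 concentrations, incubate 48 h, interpolate endpoints linearly. Abbreviation: GI50, concentration required for 50% inhibition of growth. TGI denotes the concentration required for complete inhibition of growth.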

Columns and labels:
Test in all cases: NCI anticancer screen, dose series, 48 h
[1] = test system: HL-60(TB) leukemia
[2] = test system: UACC-257 melanoma
[3] = test system: UACC-62 melanoma
[4] = test system: NCI-H460 lung
[5] = test system: DMS 273 small cell lung
[6] = test system: M19-MEL melanoma
[7] = test system: MALME-3M melanoma
[8] = test system: SF-268 CNS
[9] = test system: MDA-MB-435
[10] = test system: MCF7 breast

Row | Structure (SMILES) | TGI [1] [µM] | TGI [2] [µM] | TGI [3] [µM] | TGI [4] [µM] | TGI [5] [µM] | TGI [6] [µM] | TGI [7] [µM] | TGI [8] [µM] | GI50 [1] [µM] | GI50 [2] [µM] | GI50 [3] [µM] | GI50 [4] [µM] | GI50 [8] [µM] | GI50 [9] [µM] | TGI [9] [µM] | GI50 [10] [µM] | TGI [10] [µM] | GI50 [7] [µM]
1 | O=C1CC(c2c(-c3ccccc3)[nH]c3ccccc23)C(=O)N1c1ccccc1 (centres undefined) | > 100 | > 100 | > 100 | > 100 | > 100 | > 100 | > 100 | – | – | – | – | – | – | – | – | – | – | –
2 | Cc1cc(N(CCC#N)CCC#N)ccc1N=Nc1cc(Cl)ccc1Cl | 16 | 23.8 | 21.7 | – | 29.6 | 26.6 | 17.9 | 29.9 | – | – | – | – | – | – | – | – | – | –
3 | CCOC(=O)C1C=C2O[C@@H]3OC4(CCCCC4)O[C@@H]3C2C2C(=O)CCC(=O)[C@@]12C(=O)OC (some centres undefined) | > 100 | > 100 | > 100 | > 100 | > 100 | > 100 | > 100 | > 100 | – | – | – | – | – | – | – | – | – | –
4 | O=C1/C(=C/c2ccc3c(c2)OCCO3)CCC/C1=C\c1ccc2c(c1)OCCO2 | 56.9 | 59.7 | 61.3 | 65.6 | 43.9 | 81.9 | > 100 | > 100 | – | – | – | – | – | – | – | – | – | –
5 | COC(=O)c1cccc2c3ccccc3c3ccccc3c12 | 58.1 | > 100 | > 100 | – | > 100 | > 100 | > 100 | > 100 | – | – | – | – | – | – | – | – | – | –
6 | CC1(C)CCCC2(C)C3C(O)CC2(C)C(O)C31 (centres undefined) | – | > 100 | > 100 | > 100 | – | > 100 | > 100 | > 100 | – | – | – | – | – | – | – | – | – | –
7 | Cc1cccc(C)c1NC(=O)CCC/C(CC(=O)c1ccc(F)cc1)=N\NC(=O)C(=O)NN | > 100 | > 100 | > 100 | > 100 | > 100 | > 100 | > 100 | > 100 | – | – | – | – | – | – | – | – | – | –
8 | C1OC1CN1CCN(CC2CO2)CC1 (centres undefined) | > 88.7 | > 100 | > 68.5 | > 100 | > 100 | > 100 | > 100 | > 100 | – | – | – | – | – | – | – | – | – | –
9 | Cn1c(=O)nc2n(-c3ccc(Cl)cc3)c(-c3ccccc3)c(-c3ccccc3)nc-2c1=O | 58.6 | 66.9 | 32.5 | 62.5 | 59.3 | – | > 100 | > 100 | – | – | – | – | – | – | – | – | – | –
10 | CC1=CC(C)(c2c[nH]c3ccccc23)CC(C)(C)c2c1[nH]c1ccccc21 (centres undefined) | – | 41.2 | 36.6 | 34.5 | – | 43.7 | 35 | > 100 | – | – | – | – | – | – | – | – | – | –
11 | N#Cc1c(-c2ccccc2)cc(-c2ccc(N)cc2)[nH]c1=O | > 100 | > 100 | > 100 | > 100 | > 100 | > 100 | > 100 | > 100 | – | – | – | – | – | – | – | – | – | –
12 | CCc1cccc(C(C)C)c1NC(=O)CCl | 70.8 | > 100 | > 100 | – | > 100 | > 100 | > 100 | > 100 | – | – | – | – | – | – | – | – | – | –
13 | CCCCC(C)/C=C/C(=O)C1=C(O)/C(=C/C(=O)O)OC1=O (centres undefined) | > 100 | > 100 | > 100 | > 100 | > 100 | – | > 100 | – | – | – | – | – | – | – | – | – | – | –
14 | N#Cc1ccc(-c2c(-c3ncn[nH]3)sc(N3CCOCC3)c2C#N)c(F)c1 | > 100 | 8.85 | 2.64 | 23.6 | – | – | 6 | 59.1 | 0.781 | 0.418 | 0.384 | 0.419 | 0.507 | 0.995 | 17 | 0.135 | 17.7 | 0.275
